Our source for the IC50 values is US10029993B2, “Disubstituted 1, 2, 4-triazine compound” (MITSUBISHI TANABE PHARMA CORPORATION, priority 2014, dated 2018).

The target of the experiment is human CYP11B2 (Homo sapiens (Human), UniProt P19099). As to the kind of experiment: Inhibitory effect on hCYP11B2 (aldosterone production by mitochondrial fraction of V79 cells stably expressing human CYP11B2, HTRF). Type of experiment: biochemical. To be noted: 0.5 μmol/L deoxycorticosterone, 150 μmol/L NADPH, 1.5-2 hours at room temperature. As for the experimental part: Experimental Example 1 (Inhibitory Effect on hCYP11B2)
human CYP11B2, sequence (P19099 25-503): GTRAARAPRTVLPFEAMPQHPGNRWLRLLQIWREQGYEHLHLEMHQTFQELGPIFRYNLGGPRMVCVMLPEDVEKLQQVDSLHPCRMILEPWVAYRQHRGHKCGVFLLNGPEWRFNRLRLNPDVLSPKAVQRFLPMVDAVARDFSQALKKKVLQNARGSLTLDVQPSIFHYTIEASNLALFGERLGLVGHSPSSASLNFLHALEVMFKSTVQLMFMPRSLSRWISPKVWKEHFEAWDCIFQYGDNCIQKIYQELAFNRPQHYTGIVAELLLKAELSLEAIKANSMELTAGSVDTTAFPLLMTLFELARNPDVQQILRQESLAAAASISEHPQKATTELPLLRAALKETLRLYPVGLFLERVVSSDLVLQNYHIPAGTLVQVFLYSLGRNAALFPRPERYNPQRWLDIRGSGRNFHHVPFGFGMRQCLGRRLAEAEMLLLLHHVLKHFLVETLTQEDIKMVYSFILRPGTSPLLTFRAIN
The pcDNA3.1-human CYP11B2 plasmid was transfected into a Chinese hamster lung fibroblast V79 cell line to produce a cell line stably expressing human CYP11B2 gene.
The cells were cultured and grown in the Dulbecco's modified Eagle's/Ham's medium supplemented with 10% fetal bovine serum and 1% G418 disulfate solution under the environment of 37° C., 95% air, and 5% CO2, and the grown cells were harvested.
Then, the cells were fractionated to obtain mitochondria by reference to a method described in Chabre et al. JCE 86 M 85 (11) 4060-68, 2000. In particular, the cells suspended in a 5 mmol/L Tris-HCl buffer (pH 7.4) containing 250 mmol/L sucrose were homogenized in a Teflon (Registered Trademark) Potter Elvehjem homogenizer, and then the suspension was centrifuged (800×g, 15 min.). The supernatant was separated and again centrifuged (10000×g, 15 min.) to obtain a pellet (mitochondrial fraction).
The mitochondrial fraction diluted with a buffer containing 10 mmol/L KH2PO4, 10 mmol/L Tris, 20 mmol/L KCl, 25 mmol/L sucrose, 5 mmol/L MgCl2, and 0.05% bovine serum albumin was dispensed to a 96-well plate. 0.5 μmol/L Deoxycorticosterone, 150 μmol/L NADPH and a compound of each concentration were added to each well, and incubated for 1.5-2 hours at room temperature to produce aldosterone. An amount of the produced aldosterone in the incubated solution was determined by using HTRF (Homogeneous Time Resolved Fluorescence) method.
IC 50 (nmol/L) was calculated by analyzing the aldosterone production inhibition rate (%) of each concentration of compounds by non-linear regression to a logistic curve.
(Time-resolved FRET reads energy transfer from a long-lived donor to a nearby acceptor.)
`CNC(=O)Cn1cc(NC(=O)CN2CCN(c3nncc(-c4ccc(C)cc4)n3)CC2)cn1` [Example 79] had an IC50 of 4.5 nM. Under `Cn1c(-c2cnnc(N3CCOCC3)n2)cc2ccccc21` [Example 211, 5-(1-methyl-1H-indol-2-yl)-3-morpholino-1,2,4-triazine] stands 2.4 nM; under `CO[C@H]1CC[C@H](NC(=O)CN2CCN(c3nncc(-c4ccc5c(cnn5C)c4)n3)CC2)CC1` [Example 19], 17 nM; under `O=C(CN1CCN(c2nncc(-c3ccc(F)cc3)n2)CC1)NCCN1CCS(=O)(=O)CC1` [Example 47], 11 nM.

Take `Clc1ccc(CNc2cnnc(N3CCOCC3)n2)cc1` [Example 257, 5-(4-chlorobenzyl) amino-3-morpholino-1,2,4-triazine]: the IC50 was found to be 13 nM. For the molecule `O=C(CN1CCN(c2nncc(-c3ccc(F)cc3)n2)CC1)NC1CCN(CC2=NCCN2)CC1` [Example 151, 3-[4-[[1-[(4,5-dihydro-1H-imidazol-2-yl)methyl]piperidin-4-yl]carbamoylmethyl]piperazin-1-yl]-5-(4-fluorophenyl)-1,2,4-triazine], half-maximal inhibition (IC50) was put at 16 nM.

In the case of `CC(C)NC(=O)CN1CCN(c2nncc(-c3ccc(C#N)nc3)n2)CC1` [Example 215, 5-(2-cyano-5-pyridyl)-3-[4-(isopropylcarbamoylmethyl)piperazin-1-yl]-1,2,4-triazine], the IC50 turned out to be 29 nM. `Cc1ccccc1-c1cnnc(N2CCC(CCCO)CC2)n1` [Example 183] yielded an IC50 of 0.7 nM. The molecule `Cc1nc[nH]c1CN1CCC(NC(=O)CN2CCN(c3nncc(-c4ccc(F)cc4)n3)CC2)CC1` [Example 153] yielded an IC50 of 18 nM. Then `CC(=O)N[C@H]1CC[C@H](NC(=O)CN2CCN(c3nncc(-c4ccc(C)cc4)n3)CC2)CC1` [Example 48], with 9 nM; and `CNC(=O)Cn1cc(NC(=O)CN2CCN(c3nncc(-c4ccc(F)cc4)n3)CC2)cn1` [Example 80], with 4.5 nM. Take `CN1CC[C@H](NC(=O)CN2CCN(c3nncc(-c4ccc5c(c4)COC5)n3)CC2)CC1=O` [Example 84]: it took 25 nM to reach half-maximal inhibition (IC50). Under `CN(C)[C@@H]1CCC[C@H](NC(=O)CN2CCN(c3nncc(-c4ccc(F)cc4)n3)CC2)C1` [compound 160] stands 13 nM; under `Cc1nc[nH]c1CN1CCC(NC(=O)CN2CCN(c3nncc(-c4ccc(Cl)cc4)n3)CC2)CC1` [Example 154], 1.1 nM; under `CC(C)NC(=O)CN1CCN(c2nncc(-c3ccc4c(c3)CNN4C)n2)CC1` [Example 222], 26 nM. Under `CC(=O)N1CCC(CNc2nncc(-c3ccc4ccccc4c3)n2)CC1` [Example 196] stands 67 nM; under `CN(C)[C@H]1CC[C@H](NC(=O)C(O)C2CCN(c3nncc(-c4ccc(F)cc4)n3)CC2)CC1` (relative stereo) [Example 252, 3-[4-[[[trans-4-(dimethylamino)cyclohexyl]carbamoyl]hydroxymethyl]piperidino]-5-(4-fluorophenyl)-1,2,4-triazine], 15 nM; under `CN1CCNC(=O)C12CCC(NC(=O)CN1CCN(c3nncc(-c4ccc(F)cc4)n3)CC1)CC2` (stereo not drawn) [Example 82], 12 nM. Under `CN(C)C(=O)Cn1cc(NC(=O)CN2CCN(c3nncc(-c4ccc(F)cc4)n3)CC2)cn1` [Example 71] stands 6.1 nM; under `O=C1NCC2(CCN(c3nncc(-c4ccc5ccccc5c4)n3)CC2)O1` [Example 199], 12 nM; under `Cc1ccc(-c2cnnc(N3CCN(CC(=O)Nc4cnn(CC(=O)N(C)C)c4)CC3)n2)cc1` [Example 75], 7.6 nM.

`CNC(=O)CN1CCC(NC(=O)CN2CCN(c3nncc(-c4ccc(C)cc4)n3)CC2)CC1` [Example 85] gave an IC50 of 9.9 nM. Under `CNC(=O)CO[C@H]1CC[C@H](NC(=O)CN2CCN(c3nncc(-c4ccc(F)cc4)n3)CC2)CC1` [Example 55] stands 8.7 nM. With `NC(=O)N1CCC(O)(CNC(=O)CN2CCN(c3nncc(-c4ccc(Cl)cc4)n3)CC2)CC1` [Example 59], the IC50 stood at 19 nM.

As a reminder, the IC50 is the concentration that inhibits the measured activity by half.
